According to the kinase profiling compilation of Christmann-Franck et al. (2016):

Columns and labels:
Experiment in all cases: radiometric filter-binding kinase assay, Kinase HotSpot
Conditions in all cases: compound 0.5 µM; ATP 10 µM
PAK4 (human) = PAK4 (human) (UniProt O96013)
FGFR1 (human) = FGFR1 (human) (UniProt P11362)
STK17A (human) = STK17A (human) (UniProt Q9UEE5)
TGFBR2 (human) = TGFBR2 (human) (UniProt P37173)
CDK5 CDK5R1 p25 (human) = CDK5 CDK5R1 p25 (human) (UniProt Q00535+Q15078)
HCK (human) = HCK (human) (UniProt P08631)
MAPK13 (human) = MAPK13 (human) (UniProt O15264)
WEE1 (human) = WEE1 (human) (UniProt P30291)
PRKCB1 (human) = PRKCB1 (human) (UniProt P05771)
STK11 (human) = STK11 (human) (UniProt Q15831)
FGFR3 (human) = FGFR3 (human) (UniProt P22607)
HIPK2 (human) = HIPK2 (human) (UniProt Q9H2X6)
SRC (human) = SRC (human) (UniProt P12931)
PRKCZ (human) = PRKCZ (human) (UniProt Q05513)
BMX (human) = BMX (human) (UniProt P51813)
PLK1 (human) = PLK1 (human) (UniProt P53350)
IKBKE (human) = IKBKE (human) (UniProt Q14164)
DMPK (human) = DMPK (human) (UniProt Q09013)
MARK4 (human) = MARK4 (human) (UniProt Q96L34)
WNK2 (human) = WNK2 (human) (UniProt Q9Y3S1)
AKT2 (human) = AKT2 (human) (UniProt P31751)
DCLK2 (human) = DCLK2 (human) (UniProt Q8N568)
CDK4 CCND3 (human) = CDK4 CCND3 (human) (UniProt P30281+P11802)
SGK2 (human) = SGK2 (human) (UniProt Q9HBY8)
CDK7 CCNH MNAT1 (human) = CDK7 CCNH MNAT1 (human) (UniProt P50613+P51948+P51946)
MAPK12 (human) = MAPK12 (human) (UniProt P53778)
YES1 (human) = YES1 (human) (UniProt P07947)
NEK7 (human) = NEK7 (human) (UniProt Q8TDX7)
DDR2 (human) = DDR2 (human) (UniProt Q16832)
RPS6KA5 KD2 (human) = RPS6KA5 KD2 (human) (UniProt O75582)
PKN2 (human) = PKN2 (human) (UniProt Q16513)
ZAP70 (human) = ZAP70 (human) (UniProt P43403)
BLK (human) = BLK (human) (UniProt P51451)
GRK4 (human) = GRK4 (human) (UniProt P32298)
RPS6KB2 (human) = RPS6KB2 (human) (UniProt Q9UBS0)
GSG2 (human) = GSG2 (human) (UniProt Q8TF76)
TAOK1 (human) = TAOK1 (human) (UniProt Q7L7X3)
EPHA7 (human) = EPHA7 (human) (UniProt Q15375)
EPHA8 (human) = EPHA8 (human) (UniProt P29322)
CSNK1D (human) = CSNK1D (human) (UniProt P48730)
MST4 (human) = MST4 (human) (UniProt Q9P289)
INSRR (human) = INSRR (human) (UniProt P14616)
INSRR (human), sequence (P14616 whole entry, looked up): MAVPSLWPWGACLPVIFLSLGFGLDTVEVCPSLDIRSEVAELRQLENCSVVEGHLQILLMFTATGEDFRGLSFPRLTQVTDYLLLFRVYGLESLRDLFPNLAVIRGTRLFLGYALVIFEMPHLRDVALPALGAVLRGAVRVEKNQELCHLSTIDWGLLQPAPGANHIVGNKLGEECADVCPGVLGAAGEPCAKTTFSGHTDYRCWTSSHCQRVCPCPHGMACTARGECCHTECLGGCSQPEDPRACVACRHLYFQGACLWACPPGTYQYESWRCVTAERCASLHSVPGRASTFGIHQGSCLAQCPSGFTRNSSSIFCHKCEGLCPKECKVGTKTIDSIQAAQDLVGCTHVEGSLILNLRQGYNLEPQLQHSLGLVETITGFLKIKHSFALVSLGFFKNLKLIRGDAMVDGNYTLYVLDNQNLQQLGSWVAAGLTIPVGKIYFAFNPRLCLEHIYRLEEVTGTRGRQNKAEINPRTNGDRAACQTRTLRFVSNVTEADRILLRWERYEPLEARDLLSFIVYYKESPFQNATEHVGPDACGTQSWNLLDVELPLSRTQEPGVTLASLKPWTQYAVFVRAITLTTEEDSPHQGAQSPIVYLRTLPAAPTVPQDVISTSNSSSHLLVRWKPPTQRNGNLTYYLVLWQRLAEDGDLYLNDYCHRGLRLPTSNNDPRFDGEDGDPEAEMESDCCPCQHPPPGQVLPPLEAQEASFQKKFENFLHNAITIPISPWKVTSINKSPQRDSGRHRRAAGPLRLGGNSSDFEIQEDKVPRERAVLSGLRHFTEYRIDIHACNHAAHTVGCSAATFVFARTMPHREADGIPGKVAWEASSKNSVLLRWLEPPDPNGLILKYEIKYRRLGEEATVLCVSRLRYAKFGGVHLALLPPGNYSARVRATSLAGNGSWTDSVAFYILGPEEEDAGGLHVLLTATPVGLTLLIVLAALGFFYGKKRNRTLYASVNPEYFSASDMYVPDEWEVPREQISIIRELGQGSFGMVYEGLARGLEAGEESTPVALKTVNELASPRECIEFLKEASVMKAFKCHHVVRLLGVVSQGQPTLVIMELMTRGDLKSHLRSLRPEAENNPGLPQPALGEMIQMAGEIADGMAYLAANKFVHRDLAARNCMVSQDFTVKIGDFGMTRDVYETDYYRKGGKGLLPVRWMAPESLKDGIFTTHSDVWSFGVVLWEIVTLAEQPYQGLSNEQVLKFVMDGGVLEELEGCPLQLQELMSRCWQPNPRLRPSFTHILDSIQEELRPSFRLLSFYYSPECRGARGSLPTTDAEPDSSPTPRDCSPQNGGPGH

PAK4 (human), sequence (O96013 whole entry, looked up): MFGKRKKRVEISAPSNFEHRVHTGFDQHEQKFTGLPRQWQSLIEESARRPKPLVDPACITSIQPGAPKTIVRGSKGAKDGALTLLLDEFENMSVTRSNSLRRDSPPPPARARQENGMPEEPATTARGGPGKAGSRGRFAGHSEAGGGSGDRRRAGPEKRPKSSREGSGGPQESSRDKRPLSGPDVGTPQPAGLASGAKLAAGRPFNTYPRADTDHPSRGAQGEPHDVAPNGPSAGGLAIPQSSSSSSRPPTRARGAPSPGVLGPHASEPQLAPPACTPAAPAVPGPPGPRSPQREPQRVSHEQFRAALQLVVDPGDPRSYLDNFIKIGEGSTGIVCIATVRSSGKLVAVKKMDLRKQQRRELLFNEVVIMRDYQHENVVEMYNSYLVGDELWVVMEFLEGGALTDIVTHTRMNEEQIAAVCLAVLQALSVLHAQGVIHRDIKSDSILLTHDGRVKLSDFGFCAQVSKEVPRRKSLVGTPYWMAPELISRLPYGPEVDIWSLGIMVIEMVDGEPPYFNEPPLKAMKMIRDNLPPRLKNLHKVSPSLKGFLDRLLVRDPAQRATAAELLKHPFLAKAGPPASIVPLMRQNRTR
RPS6KB2 (human), sequence (Q9UBS0 whole entry, looked up): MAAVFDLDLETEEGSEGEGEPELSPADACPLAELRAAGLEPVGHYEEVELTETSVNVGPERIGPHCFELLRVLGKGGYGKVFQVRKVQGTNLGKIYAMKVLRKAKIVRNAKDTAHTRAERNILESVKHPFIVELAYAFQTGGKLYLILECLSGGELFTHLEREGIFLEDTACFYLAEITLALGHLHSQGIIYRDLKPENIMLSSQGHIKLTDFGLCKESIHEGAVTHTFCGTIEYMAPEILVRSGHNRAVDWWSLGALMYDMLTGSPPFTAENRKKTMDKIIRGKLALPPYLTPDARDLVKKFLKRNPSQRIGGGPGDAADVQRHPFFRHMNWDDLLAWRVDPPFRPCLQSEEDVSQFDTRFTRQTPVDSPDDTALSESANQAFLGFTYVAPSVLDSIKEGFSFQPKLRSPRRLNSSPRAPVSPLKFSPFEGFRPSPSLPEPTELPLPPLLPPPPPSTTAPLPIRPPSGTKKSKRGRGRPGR
PKN2 (human), sequence (Q16513 whole entry, looked up): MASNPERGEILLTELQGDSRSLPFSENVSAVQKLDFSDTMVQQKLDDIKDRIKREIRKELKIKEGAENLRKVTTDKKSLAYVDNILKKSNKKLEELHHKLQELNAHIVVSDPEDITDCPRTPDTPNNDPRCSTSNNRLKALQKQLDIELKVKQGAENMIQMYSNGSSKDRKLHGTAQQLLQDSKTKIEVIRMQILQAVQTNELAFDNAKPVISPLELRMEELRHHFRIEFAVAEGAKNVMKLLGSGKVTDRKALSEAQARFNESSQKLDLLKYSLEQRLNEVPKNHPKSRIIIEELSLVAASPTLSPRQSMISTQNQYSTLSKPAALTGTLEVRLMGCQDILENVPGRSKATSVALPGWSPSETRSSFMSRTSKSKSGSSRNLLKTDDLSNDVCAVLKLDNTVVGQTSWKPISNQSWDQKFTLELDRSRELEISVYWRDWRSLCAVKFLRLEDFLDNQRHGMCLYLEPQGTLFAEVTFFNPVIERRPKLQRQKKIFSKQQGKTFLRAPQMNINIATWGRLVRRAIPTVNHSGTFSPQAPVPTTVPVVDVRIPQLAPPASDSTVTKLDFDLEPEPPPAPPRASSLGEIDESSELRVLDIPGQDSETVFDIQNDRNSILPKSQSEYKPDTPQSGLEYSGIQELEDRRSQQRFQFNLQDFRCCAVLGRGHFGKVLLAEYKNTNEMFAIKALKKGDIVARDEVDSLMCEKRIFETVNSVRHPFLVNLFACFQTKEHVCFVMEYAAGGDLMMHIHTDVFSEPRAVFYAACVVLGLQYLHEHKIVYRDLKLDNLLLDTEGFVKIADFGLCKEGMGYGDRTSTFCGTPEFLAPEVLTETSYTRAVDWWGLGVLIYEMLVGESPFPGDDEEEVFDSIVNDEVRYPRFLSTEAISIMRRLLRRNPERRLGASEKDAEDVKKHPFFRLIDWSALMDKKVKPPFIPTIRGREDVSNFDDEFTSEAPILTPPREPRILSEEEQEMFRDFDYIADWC
SRC (human), sequence (P12931 whole entry, looked up): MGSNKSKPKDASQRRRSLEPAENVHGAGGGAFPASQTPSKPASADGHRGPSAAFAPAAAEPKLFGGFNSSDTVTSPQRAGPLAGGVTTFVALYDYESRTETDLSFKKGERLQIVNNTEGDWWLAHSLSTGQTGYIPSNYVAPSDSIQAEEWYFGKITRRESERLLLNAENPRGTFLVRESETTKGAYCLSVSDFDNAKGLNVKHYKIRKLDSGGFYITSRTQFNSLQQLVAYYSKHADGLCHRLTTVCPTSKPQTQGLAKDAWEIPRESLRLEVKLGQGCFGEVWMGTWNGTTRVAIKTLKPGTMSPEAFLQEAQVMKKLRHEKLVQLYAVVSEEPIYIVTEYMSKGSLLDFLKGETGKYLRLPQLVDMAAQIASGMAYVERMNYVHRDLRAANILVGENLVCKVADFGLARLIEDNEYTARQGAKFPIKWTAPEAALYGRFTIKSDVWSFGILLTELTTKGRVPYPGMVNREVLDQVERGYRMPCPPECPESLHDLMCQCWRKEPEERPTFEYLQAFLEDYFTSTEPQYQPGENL
STK17A (human), sequence (Q9UEE5 whole entry, looked up): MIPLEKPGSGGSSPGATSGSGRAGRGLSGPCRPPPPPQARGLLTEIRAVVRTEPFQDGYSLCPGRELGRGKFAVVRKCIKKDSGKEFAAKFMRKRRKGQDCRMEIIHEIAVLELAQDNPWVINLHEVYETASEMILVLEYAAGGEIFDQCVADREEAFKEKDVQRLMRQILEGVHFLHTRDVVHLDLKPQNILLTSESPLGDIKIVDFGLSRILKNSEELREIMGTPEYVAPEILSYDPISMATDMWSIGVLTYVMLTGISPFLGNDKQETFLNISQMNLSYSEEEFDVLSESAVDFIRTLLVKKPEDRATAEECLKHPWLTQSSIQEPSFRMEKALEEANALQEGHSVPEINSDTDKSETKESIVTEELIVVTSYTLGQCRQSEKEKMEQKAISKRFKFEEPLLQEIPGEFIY
PLK1 (human), sequence (P53350 whole entry, looked up): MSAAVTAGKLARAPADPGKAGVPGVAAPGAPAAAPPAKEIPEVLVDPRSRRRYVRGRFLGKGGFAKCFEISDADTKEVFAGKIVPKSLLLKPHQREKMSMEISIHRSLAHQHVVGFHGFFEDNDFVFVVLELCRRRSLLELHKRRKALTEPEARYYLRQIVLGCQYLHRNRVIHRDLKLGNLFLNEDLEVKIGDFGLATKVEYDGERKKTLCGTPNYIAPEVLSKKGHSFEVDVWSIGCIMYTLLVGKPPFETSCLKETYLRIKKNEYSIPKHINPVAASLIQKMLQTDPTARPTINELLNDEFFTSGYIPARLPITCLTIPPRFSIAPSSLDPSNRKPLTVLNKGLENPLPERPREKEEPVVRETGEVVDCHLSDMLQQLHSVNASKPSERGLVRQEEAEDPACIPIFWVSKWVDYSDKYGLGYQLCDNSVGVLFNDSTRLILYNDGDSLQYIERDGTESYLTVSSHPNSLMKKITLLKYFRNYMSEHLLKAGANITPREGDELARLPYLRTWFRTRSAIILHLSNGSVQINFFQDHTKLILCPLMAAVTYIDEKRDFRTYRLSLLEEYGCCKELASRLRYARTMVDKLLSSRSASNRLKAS

c1ccc(-c2n[nH]c3c2oc2ccccc23)cc1
residual activity (PAK4 (human)): 111% | residual activity (FGFR1 (human)): 85.9% | residual activity (STK17A (human)): 84.4% | residual activity (TGFBR2 (human)): 94.1% | residual activity (CDK5 CDK5R1 p25 (human)): 99% | residual activity (HCK (human)): 111% | residual activity (MAPK13 (human)): 109% | residual activity (WEE1 (human)): 92.6% | residual activity (PRKCB1 (human)): 103% | residual activity (STK11 (human)): 107% | residual activity (FGFR3 (human)): 97.5% | residual activity (HIPK2 (human)): 99.6% | residual activity (SRC (human)): 81.3% | residual activity (PRKCZ (human)): 87.1% | residual activity (BMX (human)): 106% | residual activity (PLK1 (human)): 106% | residual activity (IKBKE (human)): 101% | residual activity (DMPK (human)): 99.5% | residual activity (MARK4 (human)): 98.2% | residual activity (WNK2 (human)): 102% | residual activity (AKT2 (human)): 112% | residual activity (DCLK2 (human)): 90.2% | residual activity (CDK4 CCND3 (human)): 101% | residual activity (SGK2 (human)): 93% | residual activity (CDK7 CCNH MNAT1 (human)): 101% | residual activity (MAPK12 (human)): 100% | residual activity (YES1 (human)): 86.1% | residual activity (NEK7 (human)): 105% | residual activity (DDR2 (human)): 96% | residual activity (RPS6KA5 KD2 (human)): 94.9% | residual activity (PKN2 (human)): 97.5% | residual activity (ZAP70 (human)): 89% | residual activity (BLK (human)): 88.9% | residual activity (GRK4 (human)): 110% | residual activity (RPS6KB2 (human)): 99.8% | residual activity (GSG2 (human)): 99.3% | residual activity (TAOK1 (human)): 121% | residual activity (EPHA7 (human)): 104% | residual activity (EPHA8 (human)): 102% | residual activity (CSNK1D (human)): 93.1% | residual activity (MST4 (human)): 90.6% | residual activity (INSRR (human)): 104%

c1ccc(-c2n[nH]cc2-c2ccnc3ccccc23)nc1
residual activity (PAK4 (human)): 76.9% | residual activity (FGFR1 (human)): 94.2% | residual activity (STK17A (human)): 117% | residual activity (TGFBR2 (human)): 109% | residual activity (CDK5 CDK5R1 p25 (human)): 97.2% | residual activity (HCK (human)): 98.5% | residual activity (MAPK13 (human)): 110% | residual activity (WEE1 (human)): 91.1% | residual activity (PRKCB1 (human)): 102% | residual activity (STK11 (human)): 82.6% | residual activity (FGFR3 (human)): 97.4% | residual activity (HIPK2 (human)): 91.3% | residual activity (SRC (human)): 94.7% | residual activity (PRKCZ (human)): 115% | residual activity (BMX (human)): 89.2% | residual activity (PLK1 (human)): 102% | residual activity (IKBKE (human)): 101% | residual activity (DMPK (human)): 106% | residual activity (MARK4 (human)): 105% | residual activity (WNK2 (human)): 49.2% | residual activity (AKT2 (human)): 93% | residual activity (DCLK2 (human)): 97.4% | residual activity (CDK4 CCND3 (human)): 102% | residual activity (SGK2 (human)): 101% | residual activity (CDK7 CCNH MNAT1 (human)): 104% | residual activity (MAPK12 (human)): 106% | residual activity (YES1 (human)): 93.3% | residual activity (NEK7 (human)): 102% | residual activity (DDR2 (human)): 95.1% | residual activity (RPS6KA5 KD2 (human)): 102% | residual activity (PKN2 (human)): 91.4% | residual activity (ZAP70 (human)): 100% | residual activity (BLK (human)): 99.9% | residual activity (GRK4 (human)): 94.3% | residual activity (RPS6KB2 (human)): 101% | residual activity (GSG2 (human)): 90.8% | residual activity (TAOK1 (human)): 93% | residual activity (EPHA7 (human)): 91.4% | residual activity (EPHA8 (human)): 94.6% | residual activity (CSNK1D (human)): 44.2% | residual activity (MST4 (human)): 83.4% | residual activity (INSRR (human)): 101%

CC(C)N(CCC(=O)c1ccc2ccccc2c1)Cc1ccccc1
residual activity (PAK4 (human)): 90.4% | residual activity (FGFR1 (human)): 99.5% | residual activity (STK17A (human)): 104% | residual activity (TGFBR2 (human)): 98.8% | residual activity (CDK5 CDK5R1 p25 (human)): 96.5% | residual activity (HCK (human)): 94.9% | residual activity (MAPK13 (human)): 96.2% | residual activity (WEE1 (human)): 92.1% | residual activity (PRKCB1 (human)): 92.6% | residual activity (STK11 (human)): 94.2% | residual activity (FGFR3 (human)): 99.8% | residual activity (HIPK2 (human)): 107% | residual activity (SRC (human)): 93.2% | residual activity (PRKCZ (human)): 100% | residual activity (BMX (human)): 102% | residual activity (PLK1 (human)): 97.8% | residual activity (IKBKE (human)): 93% | residual activity (DMPK (human)): 108% | residual activity (MARK4 (human)): 89.3% | residual activity (WNK2 (human)): 107% | residual activity (AKT2 (human)): 96.5% | residual activity (DCLK2 (human)): 98.3% | residual activity (CDK4 CCND3 (human)): 92.4% | residual activity (SGK2 (human)): 101% | residual activity (CDK7 CCNH MNAT1 (human)): 98% | residual activity (MAPK12 (human)): 96.2% | residual activity (YES1 (human)): 100% | residual activity (NEK7 (human)): 95.2% | residual activity (DDR2 (human)): 92.5% | residual activity (RPS6KA5 KD2 (human)): 102% | residual activity (PKN2 (human)): 98.7% | residual activity (ZAP70 (human)): 93.7% | residual activity (BLK (human)): 106% | residual activity (GRK4 (human)): 94.9% | residual activity (RPS6KB2 (human)): 94.3% | residual activity (GSG2 (human)): 95.6% | residual activity (TAOK1 (human)): 94.9% | residual activity (EPHA7 (human)): 106% | residual activity (EPHA8 (human)): 95.9% | residual activity (CSNK1D (human)): 97.6% | residual activity (MST4 (human)): 108% | residual activity (INSRR (human)): 90.1%
